# Measured values: PMC10319855, “Unravelling the hidden power of esterases for biomanufacturing of short-chain esters” (Scientific Reports, 2023)
# What was measured:
# Conditions in all cases: crude E. coli lysate 70 µg/mL protein, 0.1 M Na-phosphate pH 7, 37 °C
# CE = target: T1, CE (Brettanomyces bruxellensis, UniProt A0A7D9GZZ0); assay: p-nitrophenol release, absorbance […] nm; format: biochemical
# T1 construct: gene DEBR0S1_34310G; crude lysate
# AcAlT = target: T2, AcAlT (Komagataella phaffii, UniProt C4QX24); assay: p-nitrophenol release, absorbance […] nm; format: biochemical
# T2 construct: gene PAS_chr1-1_0419; codon-optimized gene in pET15b (pAPS07), E. coli BL21-DE3 strain SSL26; crude lysate
# T2 sequence (C4QX24 1-452): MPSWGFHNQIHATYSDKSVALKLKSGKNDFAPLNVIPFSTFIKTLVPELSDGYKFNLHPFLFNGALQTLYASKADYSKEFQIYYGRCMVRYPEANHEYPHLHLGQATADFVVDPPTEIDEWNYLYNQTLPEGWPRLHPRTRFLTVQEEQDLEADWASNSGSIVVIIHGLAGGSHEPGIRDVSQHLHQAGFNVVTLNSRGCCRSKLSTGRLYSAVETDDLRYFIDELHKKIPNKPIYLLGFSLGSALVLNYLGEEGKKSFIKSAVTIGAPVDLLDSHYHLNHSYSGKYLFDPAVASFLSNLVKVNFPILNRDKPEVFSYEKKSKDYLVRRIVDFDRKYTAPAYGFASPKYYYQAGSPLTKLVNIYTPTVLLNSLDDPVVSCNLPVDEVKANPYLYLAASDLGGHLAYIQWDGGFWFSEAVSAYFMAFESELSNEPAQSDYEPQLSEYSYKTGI
# EEB1 = EEB1 (Saccharomyces cerevisiae, UniProt Q02891)
# tEstA = target: T3, tEstA (Pseudomonas aeruginosa, UniProt O33407); assay: p-nitrophenol release, absorbance […] nm; format: biochemical
# T3 construct: gene estA; crude lysate
# T3 sequence (O33407 25-646): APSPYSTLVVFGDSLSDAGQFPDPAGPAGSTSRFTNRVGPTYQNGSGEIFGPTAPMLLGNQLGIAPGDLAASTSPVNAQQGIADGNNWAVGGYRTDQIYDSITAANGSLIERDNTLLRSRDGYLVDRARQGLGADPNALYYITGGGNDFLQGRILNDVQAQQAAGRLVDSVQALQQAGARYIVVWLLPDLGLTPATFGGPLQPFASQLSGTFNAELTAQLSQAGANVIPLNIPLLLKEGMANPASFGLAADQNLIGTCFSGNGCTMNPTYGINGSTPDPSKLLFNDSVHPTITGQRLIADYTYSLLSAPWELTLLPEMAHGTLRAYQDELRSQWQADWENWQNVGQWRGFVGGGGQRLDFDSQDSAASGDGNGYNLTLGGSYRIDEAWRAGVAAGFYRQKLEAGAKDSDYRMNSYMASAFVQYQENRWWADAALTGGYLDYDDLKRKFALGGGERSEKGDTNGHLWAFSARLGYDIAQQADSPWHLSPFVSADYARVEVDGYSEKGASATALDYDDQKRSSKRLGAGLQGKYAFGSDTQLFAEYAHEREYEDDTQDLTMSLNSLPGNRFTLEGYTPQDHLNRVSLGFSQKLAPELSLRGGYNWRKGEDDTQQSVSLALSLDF
# Chain of EEB1 (Q02891 whole entry): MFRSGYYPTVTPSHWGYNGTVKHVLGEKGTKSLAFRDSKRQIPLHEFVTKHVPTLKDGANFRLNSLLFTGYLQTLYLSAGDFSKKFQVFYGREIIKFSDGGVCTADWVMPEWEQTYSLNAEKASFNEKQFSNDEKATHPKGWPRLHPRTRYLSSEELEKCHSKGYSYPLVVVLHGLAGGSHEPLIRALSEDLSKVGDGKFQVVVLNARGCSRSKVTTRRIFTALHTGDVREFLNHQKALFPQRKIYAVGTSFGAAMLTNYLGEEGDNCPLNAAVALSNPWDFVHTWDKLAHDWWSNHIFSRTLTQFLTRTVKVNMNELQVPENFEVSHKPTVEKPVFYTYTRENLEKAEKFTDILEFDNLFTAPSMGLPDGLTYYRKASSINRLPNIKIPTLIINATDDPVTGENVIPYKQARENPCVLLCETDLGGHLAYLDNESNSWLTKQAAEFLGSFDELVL
# T1 sequence (A0A7D9GZZ0 entry or part of it): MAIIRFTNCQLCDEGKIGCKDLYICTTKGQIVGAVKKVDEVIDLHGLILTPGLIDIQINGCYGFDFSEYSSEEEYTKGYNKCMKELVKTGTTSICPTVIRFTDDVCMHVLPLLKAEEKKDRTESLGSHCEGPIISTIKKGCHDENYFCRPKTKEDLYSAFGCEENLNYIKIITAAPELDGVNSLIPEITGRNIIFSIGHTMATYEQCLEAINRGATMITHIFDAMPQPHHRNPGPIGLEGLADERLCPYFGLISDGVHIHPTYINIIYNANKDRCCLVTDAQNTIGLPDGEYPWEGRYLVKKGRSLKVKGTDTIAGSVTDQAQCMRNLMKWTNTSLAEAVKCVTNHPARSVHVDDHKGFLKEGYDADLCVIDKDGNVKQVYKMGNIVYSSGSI
smiles,measurement,setting,value
CC(=O)Oc1ccc([N+](=O)[O-])cc1 [p-nitrophenyl acetate],KM,CE,"CE and tEstA, on the other hand, indicated relatively moderate hydrolysis activity with higher KM"
same,KM,AcAlT,"AcAlT, despite being acyltransferase, showed the second highest efficiency and relatively lower KM"
same,KM,EEB1,KM values revealed that EEB1 exhibited the highest catalytic efficiency for pNPA hydrolysis
same,KM,tEstA,"CE and tEstA, on the other hand, indicated relatively moderate hydrolysis activity with higher KM"
